Measured values from patent publication US8435582B2, “Beverage preservative system containing Pimaricin-Povidone complex” (PepsiCo, Inc., priority 2009, dated 2013).
≈ marks a conversion by molar mass, not a printed value. Where two headings read alike, the source gives them in different places.

What was measured:
physchem = type: physicochemical
Excerpt: (§1) A 2% fruit juice based non-carbonated beverage of pH 3.4 and about 12 Brix was formed by combining the following ingredients.
(§2) The preparation of beverage was divided into two aliquots.

[1] = system: Byssochlamys fulva ATCC 10099; test: 16 week MIC of un-complexed Pimaricin in 2% juice beverage, mold spores; type: cell-based; settings: Paecilomyces fulvus, ATCC10099; beverage pH 3.4, 25° C., 20 spores/ml, spores from Potato Dextrose 25 °C; read-out: 16 week incubation MIC
[2] = system: Aspergillus niger isolate of Pepsi; test: as above; type: cell-based; settings: beverage pH 3.4, 25° C., 20 spores/ml, spores from Potato Dextrose 25 °C, read-out: 16 week incubation MIC
Excerpt: as §1, §2
(§3) The tubes were sealed in a manner that prohibits moisture evaporation.
(§4) The mold spores employed were obtained from the following organisms. Aspergillus niger isolate of Pepsi; ATCC strain 90900 (Talaromyces spectabilis), ATCC strain 48441 (Pencillium galbrum), ATCC 24088 (Byssochlamys fulva), ATCC 96468 (Neosartorya fischeri) ATCC strain 96463 (Talaromyces flavus) and ATCC strain ATCC 10512 (Talaromyces flavus var. flavus). Each spore type was present at 20 spores per milliliter.

[3] = system: Neosartorya fischeri ATCC 96468; test: as above; type: cell-based; settings: Aspergillus fischeri, ATCC96468; beverage pH 3.4, 25° C., 20 spores/ml, spores from Potato Dextrose 25 °C; read-out: 16 week incubation MIC
Excerpt: as §1, §2, §3, §4

[4] = system: Penicillium glabrum ATCC 48441; test: as above; type: cell-based; settings: ATCC48441, beverage pH 3.4, 25° C., 20 spores/ml, spores from Potato Dextrose 25 °C, read-out: 16 week incubation MIC
Excerpt: as §1, §2, §3, §4

[5] = system: Talaromyces flavus var flavus ATCC 10512; test: as above; type: cell-based; settings: ATCC10512, beverage pH 3.4, 25° C., 20 spores/ml, spores from Potato Dextrose 25 °C, read-out: 16 week incubation MIC
Excerpt: as §1, §2, §3, §4

[6] = system: Talaromyces spectabilis ATCC 90900; test: as above; type: cell-based; settings: Paecilomyces variotii, ATCC90900; beverage pH 3.4, 25° C., 20 spores/ml, spores from Potato Dextrose 25 °C; read-out: 16 week incubation MIC
Excerpt: as §1, §2, §3, §4

[7] = system: Tataromyces flavus ATCC 96463; test: as above; type: cell-based; settings: Talaromyces flavus, ATCC96463; beverage pH 3.4, 25° C., 20 spores/ml, spores from Potato Dextrose 25 °C; read-out: 16 week incubation MIC
Excerpt: as §1, §2, §3, §4

[8] = system: Brettanomyces Pepsi Isolate; test: Growth inhibitory effect of Pimaricin, beverage medium containing 5% DMSO; type: cell-based; settings: 2688 h, 5% DMSO beverage pH 3.4, 25° C., PDA, read-out: Observed MIC (16 week)
Excerpt: as §1, §2
(§5) The second aliquot of beverage is identical to the first aliquot except for the presence of pimaricin. It also contains 5% DMSO. […] The tubes were sealed in a manner that prohibits moisture evaporation.
(§6) Yeast employed in the study are Zygosaccharomyces bisporus (ATCC 52407) Zygosaccharomyces bailii (ATCC 60484), Saccharomyces cerevisiae (Pepsi Isolate Y99), Brettanomyces (Pepsi Isolate Chemy 7UP), and Zygosaccharomyces (Pepsi Isolate Y2).
(§7) The mold spores employed were obtained from the following organisms Paecilomyces variotii (Pepsi isolate D16), Penicillium camembertii (Pepsi isolate M3), (Talaromyces flavus var. flavus (ATCC 10512), Byssochlamys nieva (ATCC 36614), and Byssochlamys fulva ATCC 10099). Each spore type was present initially at 20 spores per milliliter of product. Spores for a couple of strains of mold (such as Byssochlamys nieva) were developed at both 25° C. on Potato Dextrose and 30° C. on Malt Extract in order to ensure some variation in the ratio of asci (ascospores) to conidiospores.

[9] = system: Byssochlamys fulva ATCC 10099; test: as above; type: cell-based; settings: Paecilomyces fulvus, ATCC10099, pH 3.4, 5% DMSO beverage pH 3.4, 25° C., read-out: Observed MIC (16 week)
Excerpt: as §1, §2, §5, §6, §7

[10] = system: Byssochlamys nieva ATCC 36614; test: as above; type: cell-based; settings: 2688 h; 5% DMSO beverage pH 3.4, 25° C.; spores generated on PDA at 25 °C; read-out: Observed MIC (16 week)
Excerpt: as §1, §2, §5, §6, §7

[11] = system: Paecilomyces variotii Pepsi Isolate; test: as above; type: cell-based; settings: pH 3.4, 5% DMSO beverage pH 3.4, 25° C., read-out: Observed MIC (16 week)
Excerpt: as §1, §2, §5, §6, §7

[12] = system: Penicillium camembertii Pepsi Isolate; test: as above; type: cell-based; settings: pH 3.4, 5% DMSO beverage pH 3.4, 25° C., read-out: Observed MIC (16 week)
Excerpt: as §1, §2, §5, §6, §7

[13] = system: Saccharomyces cerevisiae Pepsi Isolate; test: as above; type: cell-based; settings: 5% DMSO beverage pH 3.4, 25° C., PDA, read-out: Observed MIC (16 week)
Excerpt: as §1, §2, §5, §6, §7

[14] = system: Talaromyces flavus var flavus ATCC 10512; test: as above; type: cell-based; settings: spores generated on PDA at 25 °C
Excerpt: as §1, §2, §5, §6, §7

[15] = system: Zygosaccharomyces bailli ATCC 60484; test: as above; type: cell-based; settings: ATCC60484, 5% DMSO beverage pH 3.4, 25° C., PDA, read-out: Observed MIC (16 week)
Excerpt: as §1, §2, §5, §6, §7

[16] = system: Zygosaccharomyces bailli Pepsi Isolate; test: as above; type: cell-based; settings: 5% DMSO beverage pH 3.4, 25° C., PDA, read-out: Observed MIC (16 week)
Excerpt: as §1, §2, §5, §6, §7

[17] = system: Zygosaccharomyces bisporus ATCC 52407; test: as above; type: cell-based; settings: ATCC52407, 5% DMSO beverage pH 3.4, 25° C., PDA, read-out: Observed MIC (16 week)
Excerpt: as §1, §2, §5, §6, §7

mold fungi = test: Preservation of beverage product for 16 weeks, Pimaricin stand alone; type: cell-based; settings: Pimaricin as the only antimicrobial substance (stand alone)
[18] = 25° C., pH approximately 6.4; cited from earlier work
[19] = spores generated on MEA at 30 °C
[20] = spores generated on PDA at 25 °C

- solubility (physchem; 4 °C, pH 3.4, aqueous buffer, thermodynamic from solid, solubility limit in high acid beverage): 10 µg/mL (≈ 15 µM)
- solubility at 24 h (physchem; 25 °C, pH 3.4, aqueous buffer, thermodynamic from solid, solubility limit in high acid beverage): 20 µg/mL (≈ 30 µM)
- solubility limit in high acid beverage (physchem; 24 h, pH 3.4): about 20 mg/L
- MIC [1]: 16.9 µg/mL
- MIC [2]: 18.4 µg/mL
- MIC [4]: 5.7 µg/mL
- MIC [5]: > 20 µg/mL
- MIC [6]: 10.3 µg/mL
- MIC [7]: > 20 µg/mL
- MIC [8]: 2.5 µg/mL (≈ 3.76 µM)
- MIC [9, 19]: 7.9 µg/mL (≈ 11.9 µM)
- MIC [9, 20]: 2 µg/mL (≈ 3 µM)
- MIC [10]: 46 µg/mL (≈ 69.1 µM)
- MIC [11, 19]: > 72 µg/mL
- MIC [11, 20]: 58.3 µg/mL (≈ 87.6 µM)
- MIC [12, 19]: 65 µg/mL (≈ 97.6 µM)
- MIC [12, 20]: 6.4 µg/mL (≈ 9.61 µM)
- MIC [13]: 2.5 µg/mL (≈ 3.76 µM)
- Observed MIC (16 week) ([14]; 5% DMSO beverage pH 3.4, 25° C.): >72 ppm
- MIC ([14]; Talaromyces flavus, ATCC10512, pH 3.4, 5% DMSO beverage pH 3.4, 25° C., read-out: Observed MIC (16 week)): 72 µg/mL (≈ 108 µM)
- MIC [15]: 2.5 µg/mL (≈ 3.76 µM)
- MIC [16]: 2.5 µg/mL (≈ 3.76 µM)
- MIC [17]: 2.5 µg/mL (≈ 3.76 µM)
Compound: C[C@@H]1C/C=C/C=C/C=C/C=C/[C@H](O[C@@H]2O[C@H](C)[C@@H](O)[C@H](N)[C@@H]2O)C[C@@H]2O[C@](O)(C[C@@H](O)C[C@H]3O[C@@H]3/C=C/C(=O)O1)C[C@H](O)[C@H]2C(=O)O [Pimaricin]
- MIC [3]: > 20 µg/mL
- minimum initial concentration needed to preserve product for 16 weeks (mold fungi): 280 mg Pimaricin per liter
- solubility in pure water [18]: 52 µg/mL (≈ 78.1 µM)
